{"source": "ChEMBL document CHEMBL2074522", "about": "“Role of P-glycoprotein-mediated secretion in absorptive drug permeability: An approach using passive membrane permeability and affinity to P-glycoprotein” (J Pharm Sci, 1999)", "molecular_target": "ATP-dependent translocase ABCB1 (Homo sapiens, UniProt P08183)", "sequence (P08183 whole entry)": "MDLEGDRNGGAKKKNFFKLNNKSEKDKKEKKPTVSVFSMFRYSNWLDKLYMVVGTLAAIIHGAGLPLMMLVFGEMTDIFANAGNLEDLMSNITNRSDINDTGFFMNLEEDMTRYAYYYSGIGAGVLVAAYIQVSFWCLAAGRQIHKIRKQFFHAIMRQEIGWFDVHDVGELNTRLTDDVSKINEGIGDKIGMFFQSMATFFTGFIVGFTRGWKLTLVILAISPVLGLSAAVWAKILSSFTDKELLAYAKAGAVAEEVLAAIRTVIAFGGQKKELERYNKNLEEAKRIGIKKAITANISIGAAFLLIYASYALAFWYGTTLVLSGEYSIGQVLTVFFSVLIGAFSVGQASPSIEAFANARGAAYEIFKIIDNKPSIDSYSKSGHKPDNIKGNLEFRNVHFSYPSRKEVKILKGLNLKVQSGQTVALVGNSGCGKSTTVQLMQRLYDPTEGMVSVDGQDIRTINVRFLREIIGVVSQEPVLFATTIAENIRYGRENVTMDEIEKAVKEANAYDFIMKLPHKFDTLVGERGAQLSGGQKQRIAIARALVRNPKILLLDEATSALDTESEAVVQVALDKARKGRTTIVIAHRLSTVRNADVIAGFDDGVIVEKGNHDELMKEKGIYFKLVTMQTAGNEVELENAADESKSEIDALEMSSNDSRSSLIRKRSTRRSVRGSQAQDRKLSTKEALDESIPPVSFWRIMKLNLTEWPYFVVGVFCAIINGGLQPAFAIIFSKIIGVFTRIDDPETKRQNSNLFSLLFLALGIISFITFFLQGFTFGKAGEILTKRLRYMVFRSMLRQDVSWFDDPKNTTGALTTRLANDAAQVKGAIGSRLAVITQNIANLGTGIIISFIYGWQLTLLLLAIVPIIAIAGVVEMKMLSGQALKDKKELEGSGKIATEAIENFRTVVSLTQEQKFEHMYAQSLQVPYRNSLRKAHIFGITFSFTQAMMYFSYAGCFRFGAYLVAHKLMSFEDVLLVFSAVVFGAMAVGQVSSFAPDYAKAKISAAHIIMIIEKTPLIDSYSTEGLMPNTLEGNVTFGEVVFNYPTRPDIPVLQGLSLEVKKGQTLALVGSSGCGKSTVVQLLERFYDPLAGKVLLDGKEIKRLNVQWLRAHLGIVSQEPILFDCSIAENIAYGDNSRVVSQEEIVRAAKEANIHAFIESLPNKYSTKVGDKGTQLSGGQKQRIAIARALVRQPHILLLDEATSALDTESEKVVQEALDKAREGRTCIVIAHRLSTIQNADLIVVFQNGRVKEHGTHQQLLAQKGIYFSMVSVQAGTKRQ", "experiment": "TP_TRANSPORTER: inhibition of Verapamil binding in membranes from Vinblastine-induced Caco-2 cells", "format": "functional, cell membranes, Membrane", "data": [{"smiles": "CC(C)NCC(O)COc1ccc(CCNC(=O)NC(C)C)cc1", "note": "(configuration not stated) [PAFENOLOL]", "values": [{"measurement": "Ki", "setting": "read-out: Ki1", "value": 5.5, "unit": "µM"}, {"measurement": "Ki", "setting": "read-out: Ki2", "value": 3200, "unit": "µM"}]}]}
